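Five compound concentrations were applied to cells in 96-well plates for 48 hours; endpoints were derived by simple linear interpolation of the resulting dose-response curve. GI50 is the concentration that inhibits growth by half.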 Activity calls are given as the source filed them. Cut-off read from the data, not from the text of the source: active = GI50 up to about 1.1 µM and inactive = higher.
Assays:
Assay in all cases: NCI-60 cell line screen, 48 h
A498 = tested on: A498
HCC 2998 = tested on: HCC 2998
HCT-116 = tested on: HCT-116
K562 = tested on: K562
M14 = tested on: M14
MDA-N = tested on: MDA-N
NCI-H23 = tested on: NCI-H23
OVCAR-4 = tested on: OVCAR-4
OVCAR-8 = tested on: OVCAR-8
SF-295 = tested on: SF-295
SK-MEL-5 = tested on: SK-MEL-5
SNB-75 = tested on: SNB-75
SW-620 = tested on: SW-620
U-251 = tested on: U-251
UACC-257 = tested on: UACC-257
UACC-62 = tested on: UACC-62
CCRF-CEM = tested on: CCRF-CEM
HOP-92 = tested on: HOP-92
SR = tested on: SR

Measured: GI50

CCOC(=O)c1nnsc1NN=C(C)C
inactive: A498 > 100 µM | HCC 2998 > 100 µM | HCT-116 > 100 µM | K562 > 100 µM | M14 > 100 µM | MDA-N > 100 µM | NCI-H23 > 100 µM | OVCAR-4 > 100 µM | OVCAR-8 > 100 µM | SF-295 > 100 µM | SK-MEL-5 > 100 µM | SNB-75 > 100 µM | SW-620 > 100 µM | U-251 > 100 µM | UACC-257 > 100 µM | UACC-62 > 100 µM

COC(=O)C(=O)C(C(=O)C(=O)Nc1cccc([N+](=O)[O-])c1)c1nc2ccc(Cl)cc2nc1O (stereo not drawn)
inactive: CCRF-CEM > 100 µM | HCC 2998 > 100 µM | HCT-116 > 100 µM | HOP-92 > 100 µM | M14 > 100 µM | MDA-N > 100 µM | NCI-H23 > 100 µM | OVCAR-4 > 100 µM | OVCAR-8 > 100 µM | SF-295 > 100 µM | SK-MEL-5 > 100 µM | SNB-75 77.1 µM | SW-620 > 100 µM | U-251 > 100 µM | UACC-257 > 100 µM | UACC-62 > 100 µM

O=c1[nH]nc(Cc2ccccc2)n1/N=C/c1ccco1
inactive: A498 45.9 µM | CCRF-CEM > 100 µM | HCC 2998 > 100 µM | HCT-116 > 100 µM | K562 > 100 µM | M14 > 100 µM | NCI-H23 > 100 µM | OVCAR-4 > 100 µM | OVCAR-8 > 100 µM | SF-295 > 100 µM | SNB-75 > 100 µM | SW-620 > 100 µM | U-251 > 100 µM | UACC-257 > 100 µM | UACC-62 > 100 µM

CSc1ccsc1-c1sc(-c2cc(SC)c(-c3sc(-c4cc(SC)c(-c5sccc5SC)s4)cc3SC)s2)cc1SC
inactive: A498 > 100 µM | CCRF-CEM 4.26 µM | HCC 2998 > 100 µM | HCT-116 75.9 µM | HOP-92 62.4 µM | K562 46.8 µM | M14 > 100 µM | NCI-H23 64.9 µM | OVCAR-4 > 100 µM | OVCAR-8 > 100 µM | SF-295 > 100 µM | SK-MEL-5 > 100 µM | SW-620 21.5 µM | U-251 67.3 µM | UACC-257 > 100 µM | UACC-62 42.2 µM

O=C1N2CCC[C@H]2CS1(=O)=O
inactive: A498 20.4 µM | CCRF-CEM 2.3 µM | HCC 2998 17.3 µM | HCT-116 12.7 µM | HOP-92 10.9 µM | K562 5.62 µM | M14 14.6 µM | NCI-H23 15.8 µM | OVCAR-4 11.8 µM | OVCAR-8 13.6 µM | SF-295 40.2 µM | SK-MEL-5 17.5 µM | SNB-75 18.6 µM | SW-620 8 µM | U-251 16.5 µM | UACC-257 18.7 µM | UACC-62 16.4 µM

CN(C)c1ccc(/C=N/CC2CCCN3CCCCC23)cc1 (stereo not drawn)
inactive: HCC 2998 > 100 µM | HCT-116 > 100 µM | M14 > 100 µM | MDA-N > 100 µM | NCI-H23 > 100 µM | OVCAR-8 > 100 µM | SF-295 > 100 µM | SK-MEL-5 58.7 µM | SNB-75 > 100 µM | UACC-257 > 100 µM | UACC-62 > 100 µM

COC(=O)CCC(=O)NC1c2cccc3cccc(c23)Cn2c(=O)n(C)c(=O)n21 (stereo not drawn)
inactive: CCRF-CEM > 100 µM | HCC 2998 > 100 µM | HCT-116 > 100 µM | HOP-92 > 100 µM | K562 > 100 µM | M14 > 100 µM | NCI-H23 > 100 µM | OVCAR-4 > 100 µM | OVCAR-8 > 100 µM | SF-295 > 100 µM | SK-MEL-5 > 100 µM | SNB-75 > 100 µM | SR > 100 µM | SW-620 > 100 µM | U-251 > 100 µM | UACC-257 > 100 µM | UACC-62 > 100 µM
